Where two headings read alike, the source gives them in different places.
What was measured:
[1] = compared to some amino acids such as glycine or arginine; cited from earlier work
[2] = tested on: necrotic enteritis (Clostridium perfringens inoculations); type: in vivo, male Ross 308 broilers; details: for NE score: four chickens per pen
E. maxima = assay: Coccidiosis lesion scoring (Johnson and Reid, 0-4); type: in vivo, male Ross 308 broilers; details: score 0 (no lesions) to 4 (severe lesions)
[3] = tested on: experimentally induced NE (Eimeria spp. and Clostridium perfringens challenge); type: in vivo, male Ross 308 broilers
[4] = tested on: Eimeria (overall coccidiosis lesions); assay: Overall coccidiosis lesions (TMLS); type: in vivo, male Ross 308 broilers
E. acervulina = assay: Coccidiosis lesion scoring (Johnson and Reid, 0-4); type: in vivo, male Ross 308 broilers; details: score 0 (no lesions) to 4 (severe lesions)
[5] = day 16 to day 22, challenge period

**Q.** For `N=C(N)NCC(=O)O` [GAA, guanidinoacetic acid], which Solubility in water [1] is on record?
**A.** rather low solubility in water

**Q.** And the “NE percentage (percentage of NE affected birds)” value ([2]; day 21)?
**A.** 85

**Q.** What about the NE score ([2]; day 21) of the same compound?
**A.** 3.52

**Q.** And the “NE percentage (percentage of NE affected birds)” value ([2]; day 22)?
**A.** 73

**Q.** What about the “NE scores and percentage of NE affected birds compared with untreated control” value ([2]; day 22) of the same compound?
**A.** lower NE scores and a lower percentage of NE affected birds

**Q.** And the NE score ([2]; day 22)?
**A.** 2.33

**Q.** And the “E. maxima (lesion score)” value (E. maxima; day 21)?
**A.** 0.52

**Q.** What about the “E. maxima (lesion score)” value (E. maxima; day 22) of the same compound?
**A.** 0.88

**Q.** What about the “Effect on daily feed intake (DFI) over untreated birds” value ([3]; any period (p>0.05) except a small effect in the pre-challenge period) of the same compound?
**A.** no significant effect

**Q.** And the “FCR compared with untreated birds” value ([3]; challenge period and overall)?
**A.** significantly lower

**Q.** And the “Daily weight gain (DWG) compared with IUC birds” value ([3]; challenge period from day 16 to d22)?
**A.** significantly higher

**Q.** What about the “BW_D0 (body weight)” value ([3]; day 0, before challenge, treatment mean) of the same compound?
**A.** 46

**Q.** What about the “DFI_D0-D16 (daily feed intake)” value ([3]; day 0 to day 16, pre-challenge) of the same compound?
**A.** 45.9

**Q.** And the “DWG_D0-D16 (daily weight gain)” value ([3]; day 0 to day 16, pre-challenge)?
**A.** 41.0

**Q.** What about the “FCR_D0-D16 (feed conversion ratio)” value ([3]; day 0 to day 16, pre-challenge) of the same compound?
**A.** 1.12

**Q.** What about the “DFI_D0-D42 (daily feed intake)” value ([3]; day 0 to day 42, overall) of the same compound?
**A.** 112.1

**Q.** And the “DWG_D0-D42 (daily weight gain)” value ([3]; day 0 to day 42, overall)?
**A.** 62.6

**Q.** What about the “FCR_D0-42 (feed conversion ratio)” value ([3]; day 0 to day 42, overall) of the same compound?
**A.** 1.80

**Q.** And the “BW_D16 (body weight)” value ([3]; day 16, treatment mean)?
**A.** 711

**Q.** And the “DFI_D16-D22 (daily feed intake)” value [3, 5]?
**A.** 84.4

**Q.** What about the “DWG_D16-D22 (daily weight gain)” value [3, 5] of the same compound?
**A.** 72.2

**Q.** What about the “FCR_D16-D22 (feed conversion ratio)” value [3, 5] of the same compound?
**A.** 1.18

**Q.** What about the “BW_D22 (body weight)” value ([3]; day 22, after NE challenge, treatment mean) of the same compound?
**A.** 1161

**Q.** And the “DFI_D22-D34 (daily feed intake)” value ([3]; day 22 to day 34)?
**A.** 117.3

**Q.** And the “DWG_D22-D34 (daily weight gain)” value ([3]; day 22 to day 34)?
**A.** 75.3

**Q.** And the “FCR_D22-D34 (feed conversion ratio)” value ([3]; day 22 to day 34)?
**A.** 1.56

**Q.** What about the “BW_D34 (body weight)” value ([3]; day 34, treatment mean) of the same compound?
**A.** 2463

**Q.** What about the “DFI_D34-D42 (daily feed intake)” value ([3]; day 34 to day 42) of the same compound?
**A.** 191.0

**Q.** What about the “DWG_D34-D42 (daily weight gain)” value ([3]; day 34 to day 42) of the same compound?
**A.** 108.7

**Q.** And the “FCR_D34-D42 (feed conversion ratio)” value ([3]; day 34 to day 42)?
**A.** 1.77

**Q.** And the “BW_D42 (body weight)” value ([3]; day 42, treatment mean)?
**A.** 3332

**Q.** What about the “Weight gained more than the negative control” value ([3]; grower phase) of the same compound?
**A.** approximately 9 g/day

**Q.** And the “Weight gained more than the negative control” value ([3]; overall)?
**A.** approximately 2 g/day

**Q.** What about the “Percentage of NE related mortalities” value ([3]; overall, on par with antibiotics treated control) of the same compound?
**A.** strongly reduced

**Q.** What about the NE related mortality ([3]; percentage of NE related mortalities, overall) of the same compound?
**A.** 3.33

**Q.** And the “E. maxima and coccidiosis lesions compared with untreated control” value ([4]; day 21)?
**A.** lower amounts

**Q.** What about the “TMLS (overall coccidiosis lesions)” value ([4]; day 21) of the same compound?
**A.** 0.60

**Q.** What about the “TMLS (overall coccidiosis lesions)” value ([4]; day 22) of the same compound?
**A.** 0.94

**Q.** What about the “E. acervulina (lesion score)” value (E. acervulina; day 21) of the same compound?
**A.** 0.08

**Q.** What about the “E. acervuline (lesion score)” value (E. acervulina; day 22) of the same compound?
**A.** 0.06

Source: patent US20260232610A1 (priority 2023, published 2026)
